# Assay results from publication PMC7719157 (Pharmacology Research & Perspectives, 2020).
# Key:
# [1] = molecular target: T1, PPARγ (Homo sapiens, UniProt P37231); assay: TR-FRET coactivator; assay type: biochemical
# T1 sequence (P37231 223-505 limits assumed): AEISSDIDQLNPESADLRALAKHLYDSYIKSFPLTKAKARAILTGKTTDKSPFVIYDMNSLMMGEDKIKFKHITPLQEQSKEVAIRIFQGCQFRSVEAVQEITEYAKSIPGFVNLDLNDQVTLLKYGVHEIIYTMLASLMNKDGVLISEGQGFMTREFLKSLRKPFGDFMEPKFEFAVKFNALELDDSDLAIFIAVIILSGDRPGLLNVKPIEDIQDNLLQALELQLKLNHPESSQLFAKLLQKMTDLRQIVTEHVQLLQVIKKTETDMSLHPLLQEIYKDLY
# [2] = molecular target: T2, PPARδ (Homo sapiens, UniProt Q03181); assay: AlphaScreen coactivator; assay type: biochemical
# T2 sequence (Q03181 171-441 limits assumed): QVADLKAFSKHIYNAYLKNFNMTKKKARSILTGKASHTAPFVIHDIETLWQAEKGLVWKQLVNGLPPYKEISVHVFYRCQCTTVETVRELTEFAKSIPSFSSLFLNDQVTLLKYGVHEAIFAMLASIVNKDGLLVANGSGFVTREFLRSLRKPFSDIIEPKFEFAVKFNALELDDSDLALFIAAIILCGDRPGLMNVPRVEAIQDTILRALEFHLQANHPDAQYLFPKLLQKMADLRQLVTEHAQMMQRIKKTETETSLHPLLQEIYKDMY
# [3] = molecular target: T1, PPARγ; assay: [3H]rosiglitazone radioligand displacement; assay type: binding
# [4] = molecular target: T3, PPARα (Homo sapiens, UniProt Q07869); assay: AlphaScreen coactivator; assay type: biochemical
# T3 sequence (Q07869 196-468 limits assumed): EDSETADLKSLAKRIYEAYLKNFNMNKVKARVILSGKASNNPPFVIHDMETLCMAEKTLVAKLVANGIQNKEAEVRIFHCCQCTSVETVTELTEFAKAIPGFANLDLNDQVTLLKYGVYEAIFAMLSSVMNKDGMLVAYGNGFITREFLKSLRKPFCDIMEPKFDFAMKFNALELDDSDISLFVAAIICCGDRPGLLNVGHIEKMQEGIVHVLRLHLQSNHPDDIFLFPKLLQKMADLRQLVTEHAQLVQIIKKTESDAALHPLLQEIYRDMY
IC50 [1] [µM],IC50 [2] [µM],Ki [3] [µM],IC50 [4] [µM],SMILES
0.00452,–,–,–,O=C(Nc1ccccc1)c1cc([N+](=O)[O-])ccc1Cl [GW9662]
–,48,0.14,46,"CC(C)(C)c1ccc(-c2nc(CBr)nn2-c2cccc(O)c2)cc1 [MM902, 3‐(3‐(bromomethyl)‐5‐(4‐(tert‐butyl) phenyl)‐1H‐1,2,4‐triazol‐1‐yl) phenol]"
